In PubChem BioAssay AID256 (DTP/NCI, 2004):
Values joined by “and” are separate entries in the source; they are usually repeats but may differ in a detail not shown here. Equal values may be shown once. Toxic doses and inconclusive results are not listed. The calls were made as follows: active = survival T/C of 150% or more; inactive = T/C below 125% in these data.

Tested on: CD2F1 mice, L1210 leukemia ip, survival T/C
Assay: NCI In Vivo Anticancer Drug Screen. Data for tumor model L1210 Leukemia (intraperitoneal) in CD2F1 (CDF1) mice
Conditions: higher = longer survival
How it was run: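 Antitumor effect is scored in animals hosting a serially transplanted tumor. Values compare compound-dosed animals against vehicle-only controls as a simple quotient.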

[1] = endpoint: mean survival time, dose: 75.0 mg/kg/injection, schedule: Q01DX001 (ip), vehicle: other
[2] = endpoint: mean survival time, dose: 50.0 mg/kg/injection, schedule: Q01DX009 (ip), vehicle: saline with Tween-80
[3] = endpoint: mean survival time, dose: 100.0 mg/kg/injection, schedule: Q01DX009 (ip), vehicle: saline with Tween-80
[4] = endpoint: mean survival time, dose: 200.0 mg/kg/injection, schedule: Q01DX009 (ip), vehicle: saline with Tween-80
[5] = endpoint: mean survival time, dose: 100.0 mg/kg/injection, schedule: Q04DX003 (ip), vehicle: saline with Tween-80
[6] = endpoint: mean survival time, dose: 200.0 mg/kg/injection, schedule: Q04DX003 (ip), vehicle: saline with Tween-80
[7] = endpoint: mean survival time, dose: 400.0 mg/kg/injection, schedule: Q04DX003 (ip), vehicle: saline with Tween-80
[8] = endpoint: mean survival time, dose: 12.5 mg/kg/injection, schedule: Q04DX002 (ip), vehicle: saline with Tween-80
[9] = endpoint: mean survival time, dose: 25.0 mg/kg/injection, schedule: Q04DX002 (ip), vehicle: saline with Tween-80
[10] = endpoint: mean survival time, dose: 50.0 mg/kg/injection, schedule: Q04DX002 (ip), vehicle: saline with Tween-80

Measured: T/C

CN(C)CCP(c1ccccc1)c1ccccc1
inactive: [1] 102 % of control

CCCn1c2cc([N+](=O)[O-])ccc2c(=O)c2ccc3ccccc3c21
inactive: [2] 97 % of control | [3] 104 % of control | [4] 101 % of control

Cc1ccc(NC(=O)N(CCCl)N=O)c(C)c1
active: endpoint: mean survival time, dose: 4.4 mg/kg/injection, schedule: Q01DX009 (ip), vehicle: other 167 % of control | endpoint: mean survival time, dose: 6.6 mg/kg/injection, schedule: Q01DX009 (ip), vehicle: other 161 % of control | endpoint: mean survival time, dose: 33.0 mg/kg/injection, schedule: Q01DX001 (ip), vehicle: other 183 % of control | endpoint: mean survival time, dose: 50.0 mg/kg/injection, schedule: Q01DX001 (ip), vehicle: other 200 % of control | [1] 178 % of control

COc1cc(/C=C(\C#N)c2ccc(Cl)cc2)ccc1OCc1ccccc1
inactive: [2] 95 % of control | [3] 90 % of control | [5] 89 % of control | [4] 90 % of control | [6] 89 % of control | [7] 89 % of control

CN(C)c1ccc2c(Nc3ccc(NS(C)(=O)=O)cc3)c3ccc(N(C)C)cc3nc2c1
active: endpoint: median survival time, dose: 50.0 mg/kg/injection, schedule: Q01DX009 (ip), vehicle: Klucel (hydroxypropylcellulose) (HPC) 170 % of control | endpoint: median survival time, dose: 100.0 mg/kg/injection, schedule: Q01DX009 (ip), vehicle: Klucel (hydroxypropylcellulose) (HPC) 151 % of control and 193 % of control | endpoint: median survival time, dose: 200.0 mg/kg/injection, schedule: Q01DX009 (ip), vehicle: Klucel (hydroxypropylcellulose) (HPC) 164 % of control and 174 % of control

Cc1ccc(-n2c(O)c(C=N)c(=O)n(-c3ccc(C)cc3)c2=O)cc1
inactive: [5] 95 % of control | [6] 95 % of control | [7] 97 % of control

c1ccc2c(c1)cc1cnc3cccc4ccc2c1c43
inactive: [8] 96 % of control | [9] 101 % of control | [10] 90 % of control

O=C1C(=O)C(c2ccccc2)(c2ccccc2)c2cc(-c3ccccc3)c(-c3ccccc3)cc21
inactive: endpoint: mean survival time, dose: 25.0 mg/kg/injection, schedule: Q04DX003 (ip), vehicle: saline with Tween-80 93 % of control | endpoint: mean survival time, dose: 50.0 mg/kg/injection, schedule: Q04DX003 (ip), vehicle: saline with Tween-80 89 % of control | [5] 93 % of control

CCOC(=O)C(=O)O
inactive: endpoint: mean survival time, dose: 200.0 mg/kg/injection, schedule: Q01DX009 (ip), vehicle: saline 104 % of control

CC1CCCCCC(=O)c2c(O)cc(O)cc2CC(=O)O1 (configuration not stated)
inactive: endpoint: mean survival time, dose: 100.0 mg/kg/injection, schedule: Q01DX001 (ip), vehicle: other 95 % of control | endpoint: mean survival time, dose: 200.0 mg/kg/injection, schedule: Q01DX001 (ip), vehicle: other 118 % of control | endpoint: mean survival time, dose: 400.0 mg/kg/injection, schedule: Q01DX001 (ip), vehicle: other 100 % of control

CCN(CC)C1=C(C)S(=O)(=O)C1c1ccc(C)cc1 (configuration not stated)
inactive: [2] 102 % of control | endpoint: mean survival time, dose: 100.0 mg/kg/injection, schedule: Q01DX001 (ip), vehicle: saline 97 % of control | [3] 98 % of control | endpoint: mean survival time, dose: 100.0 mg/kg/injection, schedule: Q04DX003 (ip), vehicle: saline 103 % of control | endpoint: mean survival time, dose: 200.0 mg/kg/injection, schedule: Q01DX001 (ip), vehicle: saline 97 % of control | [4] 98 % of control | endpoint: mean survival time, dose: 200.0 mg/kg/injection, schedule: Q04DX003 (ip), vehicle: saline 109 % of control | endpoint: mean survival time, dose: 400.0 mg/kg/injection, schedule: Q01DX001 (ip), vehicle: saline 97 % of control | endpoint: mean survival time, dose: 400.0 mg/kg/injection, schedule: Q04DX003 (ip), vehicle: saline 100 % of control

CC1=NCCCN=C(C)C([N+](=O)[O-])C=NC(C)(C)CN=CC1[N+](=O)[O-].[Ni] (configuration not stated)
inactive: [8] 97 % of control | [9] 97 % of control | [10] 93 % of control

O=CC(CO)OC(C=O)n1ccc(=O)[nH]c1=O (configuration not stated)
inactive: endpoint: median survival time, dose: 50.0 mg/kg/injection, schedule: Q04DX003 (ip), vehicle: saline 116 % of control
active: endpoint: median survival time, dose: 200.0 mg/kg/injection, schedule: Q04DX003 (ip), vehicle: saline 178 % of control | endpoint: median survival time, dose: 400.0 mg/kg/injection, schedule: Q04DX003 (ip), vehicle: saline 285 % of control | endpoint: median survival time, dose: 800.0 mg/kg/injection, schedule: Q04DX003 (ip), vehicle: saline 261 % of control

CN(C)C(=C1C=CC=C1)N(C)C
inactive: endpoint: mean survival time, dose: 75.0 mg/kg/injection, schedule: Q01DX001 (ip), vehicle: saline 95 % of control

CCCCCCCCCCCCNC(=O)c1cc[n+](C)cc1
inactive: endpoint: mean survival time, dose: 12.5 mg/kg/injection, schedule: Q01DX009 (ip), vehicle: saline 95 % of control | endpoint: mean survival time, dose: 12.5 mg/kg/injection, schedule: Q04DX003 (ip), vehicle: saline 98 % of control | endpoint: mean survival time, dose: 25.0 mg/kg/injection, schedule: Q04DX003 (ip), vehicle: saline 95 % of control | endpoint: mean survival time, dose: 50.0 mg/kg/injection, schedule: Q04DX003 (ip), vehicle: saline 94 % of control
